Source: publication PMC5831858, “Pharmacological characterisation of CR6086, a potent prostaglandin E2 receptor 4 antagonist, as a new potential disease-modifying anti-rheumatic drug” (Arthritis Research & Therapy, 2018)

Assays:
[1] = test system: IL-23 release; experiment: IL-23 release from human dendritic cells; assay type: cell-based; conditions: Dendritic cell, at 10 μM, read-out: inhibition of IL-23 release (plateau)
Description: PBMCs were purified using Histopaque (Sigma-Aldrich, St. Louis, MO, USA). CD14^+ cells were positively selected in a magnetic field (magnetic-activated cell sorting [MACS]; Miltenyi Biotec, Bergisch Gladbach, Germany). Purified CD14^+ cells were subsequently cultured for 7 days in differentiation medium (RPMI 1640 + 10% FBS, granulocyte-macrophage colony-stimulating factor 50 ng/ml and IL-4 100 ng/ml) and then stimulated with LPS (10 ng/ml), R848 2.5 μg/ml and PGE2 10 nM for 24 h in the presence of CR6086 (0.01–30 μM) or naproxen (1–30 μM). IL-23 release was measured by enzyme-linked immunosorbent assay (ELISA) (R&D Systems, Minneapolis, MN, USA).

[2] = test system: IL-17 release; experiment: IL-17 release from human Th17 cells; assay type: cell-based; conditions: 1–10 μM
Description: PBMCs were purified using Histopaque. CD4^+CD45^+ naive T cells were indirectly selected in a magnetic field (MACS; Miltenyi Biotec). Purified CD4^+ cells were subsequently cultured for 7 days in differentiation medium (RPMI 1640 + FBS 10%, IL-6 30 ng/ml, transforming growth factor [TGF]-β 2.25 ng/ml, IL-23 30 ng/ml, IL-1β 20 ng/ml, anti-interferon (IFN)-γ 1 ng/ml and anti-IL-4 2.5 ng/ml). Th17 cell expansion was stimulated by addition of anti-CD3/[…]anti-CD28 beads to the medium with a cell-to-beads ratio of 1:2. Th17 cells were stimulated with IL-6 30 ng/ml, TGF-β 2.25 ng/ml, IL-23 30 ng/ml, IL-1β 20 ng/ml and PGE2 10 nM for 48 h in the presence of CR6086 (0.03–10 μM) or naproxen (1–10 μM). IL-17 release was measured by ELISA (Abcam, Cambridge, UK).

[3] = test system: arthritic mice (collagen-induced arthritis model); experiment: CIA in mice, first study: clinical score and paw swelling; assay type: in vivo, mouse; conditions: 10 days; CR6086 30 and 60 mg/kg, naproxen 60 mg/kg oral once daily; etanercept 10 mg/kg i.p. every other day
Description: Male DBA/1 mice were immunised by intradermal injection at the base of the tail with an emulsion of 200 μg of bCII in CFA containing 3 mg/ml Mycobacterium tuberculosis. Non-immunised mice served as the negative control of disease. Animals were monitored by visual inspection for appearance of peripheral oedema. […] Upon onset, animals were recruited and randomised. Recruitment was given a cut-off at day 40. Upon recruitment, arthritis clinical score was assigned, and oedema was measured via caliper.
(§1) In a first study, mice were randomised into the following treatment groups: vehicle, 30 mg/kg CR6086, 60 mg/kg CR6086, 60 mg/kg naproxen and 10 mg/kg etanercept. Animals received the test drugs for 10 days. CR6086 and naproxen were administered orally once daily, whereas etanercept was administered intraperitoneally every other day. Animals treated with vehicle, 60 mg/kg CR6086, naproxen and etanercept were additionally analysed for the proportion of populations of Th17 cells, Th1 cells, regulatory T cells, B cells, macrophages, neutrophils and dendritic cells by fluorescence-activated cell sorting (FACS) after collection of blood, draining lymph nodes and joints.
Oedema measurement was performed every day before treatment, and all animals were blindly scored for clinical signs of arthritis as follows: 0 = normal; 1 = slight swelling and/or erythema; 2 = pronounced oedematous swelling; and 3 = ankyloses and severe swelling. A score of 0.5 was given to swollen toe/toes or when inflammation was localised to one part of the foot. Each limb was measured separately, with a final score based on the sum of the scores from all four paws.

[4] = test system: arthritic mice (collagen-induced arthritis model); experiment: FACS analysis of cell populations in the joint, CIA mice; assay type: in vivo, mouse; conditions: CR6086 60 mg/kg, naproxen 60 mg/kg, etanercept 10 mg/kg, mean ± SEM
Description: as §1

[5] = test system: arthritic mice (collagen-induced arthritis model); experiment: CIA in mice, second study: serum cytokines and signal limb histology; assay type: in vivo, mouse; conditions: 60 mg/kg oral daily, 10 days; mean ± SEM
[6] = test system: mouse arthritis models; set-up: method as in FDA pharmacological review; conditions: ref FDA pharmacological review; cited from earlier work
[7] = test system: rat arthritis models; set-up: method as in FDA pharmacological review; conditions: ref FDA pharmacological review; cited from earlier work

Compound | inhibition at 10 µM [1] | effect on IL-17 release [2] | effect on disease parameters (visual clinical score, paw swelling) vs vehicle [3] | B cells, Percentage of total cells [4] | Dendritic cells, Percentage of total cells [4] | Macrophages, Percentage of total cells [4] | Neutrophils, Percentage of total cells [4] | Th1, Percentage of total cells [4] | Th17, Percentage of total cells [4] | Treg, Percentage of total cells [4] | IFNγ serum concentration [5] | IL-10 serum concentration [5] | IL-17 serum concentration [5] | TNFα serum concentration [5] | potency in mouse arthritis models [6] | potency in rat arthritis models [7]
COc1ccc2cc([C@H](C)C(=O)O)ccc2c1 [Naproxen, naproxen, reference compound] | ~50% | inactive | ineffective | 5.77 ± 1.16% | 1.96 ± 0.48% | 16.31 ± 4.44% | 16.47 ± 4.48% | 0.35 ± 0.07% | 0.21 ± 0.08% | 0.63 ± 0.22% | 3.48 ± 1.10 pg/mL | 16.21 ± 2.23 pg/mL | 2.58 ± 0.43 pg/mL | 43.01 ± 4.55 pg/mL |  | 
C[C@@H]1CCN(C(=O)CC#N)C[C@@H]1N(C)c1ncnc2[nH]ccc12 [tofacitinib] |  |  |  |  |  |  |  |  |  |  |  |  |  |  | 50 mg/kg | 6.2 mg/kg
